Results taken from patent publication US10696615B2, “Prenylated hydroxystilbenes” (The University of Sydney, priority 2011, dated 2020).
≈ marks a conversion by molar mass, not a printed value. Like-named read-outs stand apart in the source and are kept apart here.

How the values were obtained:
[1] = tested on: BT-549; assay: NCI in vitro cancer screen, Breast Cancer; format: cell-based, human; conditions: for GI50 / CC50: Homo sapiens; for CC50: read-out: LC50 (the source's name)
[2] = tested on: human tumor cell lines; assay: NCI in vitro cancer screen, whole panel (summary statements); format: cell-based
[3] = tested on: Haemophilus influenzae; assay: MIC screening, broth microdilution (CLSI)
Protocol: (§6) The minimum inhibition concentration (MIC) screening was performed with 14 bacterial strains and 4 compounds. The MICs were determined by the broth microdilution method according to the Clinical and Laboratory Standards Institute (CLSI) guidelines. The MIC screening was performed on 96-well plates containing the compounds in serial 2-fold dilutions from 64 to 0.06 μg/ml. The bacterial inoculations were prepared in cation-adjusted Mueller Hinton medium broth from cultures grown on appropriate agar plates which are prepared freshly every week. The growth controls and sterile controls were included in each assay plates. The assay plates were incubated in an ambient-air incubator at 35±2° C. for 16-20 hr (24 hr for MRSA), and bacterial growth was observed and recorded.
(§7) A. Revive bacterial strains from storage frozen (−80° C.) two days before the MIC screening. Streak onto surface of appropriate agar plates, and incubate the plates for 20-24 hr at 35±2° C. in an appropriate atmosphere.
Haemophilus influenzae: chocolate agar, 5% CO2
(§8) B. Select 5-10 well-isolated colonies of similar morphology and restreak onto fresh agar plates using sterile loops. Incubate the plates for 20-24 hr at 35±2° C. in an appropriate atmosphere as above.
(§9) Compound stock solutions were prepared in 100% DMSO on the day of MIC screening and use immediately. Compound stock concentration=[(highest testing concentration)×103 μl/3 μl] (e.g. if the required highest testing concentration is 64 μg/ml in assay plates, stock concentration=64×103/3=2.2 mg/ml). The potency of testing compound is assumed as 100% unless otherwise stated whereas the potency of reference compound is calculated according to manufacturer's analysis data.
(§10) Eleven two-fold dilutions per compound were made then transferred 3 μl to each well of test plate. Final concentration of DMSO in the MIC screening is ˜3%.
(§11) B. Transfer colonies from fresh culture plates into 5 ml of saline with sterile loops and mix well. Measure and adjust turbidity to 0.5 McFarland barium sulphate standard using a turbidity meter. Alternatively, transfer 1-2 colonies into 500 μl of saline and adjust OD625 to ˜0.1 using a plate reader. […] Dilute bacterial inoculum 1:280 for Gram-positive and fastidious strains and 1:400 for Gram-negative strains into corresponding medium broth (CAMHB, CAMHB+3% lysed horse blood, HTM) (e.g. 35.6 μl of inoculum into 10 ml of CAMHB or 25 μl of inoculum into 10 ml of CAMHB). H. influenzae: HTM Streptococci: CAMHB+3% lysed horse blood Other strains in the panel: CAMHB 2.4. Prepare Assay Plates A. Add 100 μl of the bacterial inoculum to each well of the compound plates except wells B12, D12, F12 and H12. B. Add 100 μl of medium broth to wells B12, D12, F12 and H12 of the compound plates. […] Stack four plates together and cover with a sterile plate lid. Incubate in an ambient-air incubator at 35±2° C. for 16-20 hours (24 hours for MRSA). […] Perform Colony Counts A. Dilute the bacterial inoculum (0.5 McFarland) to a serial of 10-1 to 10-7 in saline solution (e.g. 100 μl bacterial inoculum+900 μl of saline). B. Spread 100 μl of each dilution (10-4, 10-5, 10-6, and 10-7) onto CAMHA plates in triplication, let the liquid soak into the agar for 10 minutes, invert the agar plates and incubate for 24 hr at 35±2° C. […] Record MICs and Calculate CFUs A. Open the compound plate layout in the compound management system, and check the assay plate barcode. B. Place the assay plate on the top of MIC reader, and adjust the magnification mirror to read each wells, record growth status as raw data. (Optional) Record photo image of each assay plates using high-speed high-resolution scanner. […] Determine MIC break points according to CLSI guideline. D. Count colonies and calculate CFU of bacterial inoculum.

[4] = tested on: Acinetobacter calcoaceticus; assay: MIC screening, broth microdilution (CLSI)
Protocol: as §6, §9, §10, §11

[5] = Calculated Log partition coefficients (Log P)
[6] = biological target: PI3Kδ (Homo sapiens, UniProt O00329); assay: Kinase activity assay; format: biochemical; conditions: listed = inhibited more than 60%
PI3Kδ, sequence (O00329 whole entry, species assumed): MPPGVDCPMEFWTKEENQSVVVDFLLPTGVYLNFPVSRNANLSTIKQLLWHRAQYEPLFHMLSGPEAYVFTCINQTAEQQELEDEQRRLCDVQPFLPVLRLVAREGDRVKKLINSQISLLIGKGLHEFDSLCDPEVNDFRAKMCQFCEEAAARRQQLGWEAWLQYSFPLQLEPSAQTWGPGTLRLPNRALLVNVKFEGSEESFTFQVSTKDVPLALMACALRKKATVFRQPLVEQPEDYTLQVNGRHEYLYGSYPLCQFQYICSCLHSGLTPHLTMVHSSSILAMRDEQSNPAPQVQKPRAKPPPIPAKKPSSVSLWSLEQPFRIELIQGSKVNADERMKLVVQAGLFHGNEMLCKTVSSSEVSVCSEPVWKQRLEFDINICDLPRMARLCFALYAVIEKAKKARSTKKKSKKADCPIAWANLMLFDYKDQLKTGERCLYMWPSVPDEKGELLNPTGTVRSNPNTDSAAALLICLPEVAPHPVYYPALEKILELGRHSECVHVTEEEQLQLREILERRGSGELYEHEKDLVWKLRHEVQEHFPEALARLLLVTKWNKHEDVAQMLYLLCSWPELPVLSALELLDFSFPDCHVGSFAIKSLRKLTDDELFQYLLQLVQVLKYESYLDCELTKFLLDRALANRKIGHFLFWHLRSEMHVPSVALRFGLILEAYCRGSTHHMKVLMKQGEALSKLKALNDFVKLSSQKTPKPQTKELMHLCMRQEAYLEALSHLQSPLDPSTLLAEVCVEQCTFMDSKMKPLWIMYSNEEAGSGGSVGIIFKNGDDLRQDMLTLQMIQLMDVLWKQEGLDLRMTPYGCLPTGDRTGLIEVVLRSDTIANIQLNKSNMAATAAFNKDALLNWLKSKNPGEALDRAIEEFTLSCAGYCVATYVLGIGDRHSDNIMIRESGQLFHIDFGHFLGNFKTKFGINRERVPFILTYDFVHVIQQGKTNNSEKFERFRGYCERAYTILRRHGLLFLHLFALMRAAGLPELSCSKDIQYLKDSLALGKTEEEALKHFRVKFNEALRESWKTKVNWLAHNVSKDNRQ
PI3Kδ, sequence (P27986 whole entry partner, species assumed): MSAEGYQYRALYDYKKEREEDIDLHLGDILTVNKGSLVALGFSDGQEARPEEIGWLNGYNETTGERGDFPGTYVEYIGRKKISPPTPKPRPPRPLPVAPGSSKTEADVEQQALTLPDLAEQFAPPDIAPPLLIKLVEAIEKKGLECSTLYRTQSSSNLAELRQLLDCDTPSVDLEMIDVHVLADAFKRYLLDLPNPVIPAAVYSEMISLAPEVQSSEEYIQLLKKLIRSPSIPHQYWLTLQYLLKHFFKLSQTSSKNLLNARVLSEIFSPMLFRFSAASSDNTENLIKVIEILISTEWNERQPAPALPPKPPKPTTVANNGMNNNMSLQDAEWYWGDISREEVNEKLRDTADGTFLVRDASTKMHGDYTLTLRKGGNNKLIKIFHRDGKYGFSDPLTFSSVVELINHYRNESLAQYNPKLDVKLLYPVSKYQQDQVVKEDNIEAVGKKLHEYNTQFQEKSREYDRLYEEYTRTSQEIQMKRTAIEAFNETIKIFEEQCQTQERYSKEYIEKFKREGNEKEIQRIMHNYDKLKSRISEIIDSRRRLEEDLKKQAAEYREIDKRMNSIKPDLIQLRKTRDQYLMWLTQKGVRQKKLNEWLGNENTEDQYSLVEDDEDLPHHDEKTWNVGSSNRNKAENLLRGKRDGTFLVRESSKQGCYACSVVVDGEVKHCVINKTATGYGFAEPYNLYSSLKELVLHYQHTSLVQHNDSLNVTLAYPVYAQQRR
Protocol: (§1) • Kinase-Glo(Plus)/ADP-Gloassay buffer 25 mMHEPES, 10 mMMgCl2, 0.01% Triton X-100, 100 μg/mLBSA, 2.5 mMDTT, pH7.4. • Caliper assay buffer 100 mMHEPES, 10 mMMgCl2, 100 μl/L Brij35 (30%), 1 mMDTT, pH7.4. Assay Substrates • MBP protein, UnactiveMEK1, Rbprotein were purchased from SignalChem. Poly(glu:tyr)(4:1) was purchased from Sigma. PIP2 was purchased from Cayman. Peptide substrates were synthesized in HD Biosciences, China. ATP was purchased from Sigma. KinaseGloPlus reagent, KinaseGloreagent and ADP Gloreagent were purchased from Promega Assay Procedure—Caliper Format
(§2) Mix Kinases, substrate, ATP and compound in 96-well assay plate, total volume is 50 μL. Incubate assay plate at 30° C. for 1 hour. Stop reaction by adding 20 μL of 35 mM EDTA and transfer 26 μL stopped reaction to 384-well assay plate. Read the assay plate on the plate reader.
(§3) Mix Kinases, substrate, ATP and compound in 384-well assay plate, total volume is 10 μl. Incubate assay plate at 30° C. for 1 hour. Add 10 μl/well of ADP GloReagent to the assay plate, incubate at 27° C. for 40 min.
(§4) Add 20 μl/well Detection Reagent to the assay plate, incubate at 27° C. for 30 min. Read the assay plate on the plate reader
(§5) Mix Kinase, substrate, ATP and compound in 384-well assay plate, total volume is 10 μl. Incubate assay plate at 30° C. for 1 hour. Add 10 μl/well KinaseGlo(Plus) reagent to the reaction mixture, and then incubate at 27° C. for 20 min. Read the assay plate on plate reader. • Hundred percent effect was performed without compound and enzyme, but containing ATP and substrate. • Zero percent effect was carried out without compound, but containing ATP, substrate and enzyme. • SB202190 is reference compounds for kinase p38β; Staurosporine(STSP) is reference compound for the remaining kinases. Results

[7] = biological target: PI3Kβ (Homo sapiens, UniProt P42338); assay: Kinase activity assay; format: biochemical; conditions: listed = inhibited more than 60%
Protocol: as §1, §2, §3, §4, §5

[8] = biological target: PI3Kγ (Homo sapiens, UniProt P48736); assay: Kinase activity assay; format: biochemical; conditions: listed = inhibited more than 60%
PI3Kγ, sequence (P48736 whole entry, species assumed): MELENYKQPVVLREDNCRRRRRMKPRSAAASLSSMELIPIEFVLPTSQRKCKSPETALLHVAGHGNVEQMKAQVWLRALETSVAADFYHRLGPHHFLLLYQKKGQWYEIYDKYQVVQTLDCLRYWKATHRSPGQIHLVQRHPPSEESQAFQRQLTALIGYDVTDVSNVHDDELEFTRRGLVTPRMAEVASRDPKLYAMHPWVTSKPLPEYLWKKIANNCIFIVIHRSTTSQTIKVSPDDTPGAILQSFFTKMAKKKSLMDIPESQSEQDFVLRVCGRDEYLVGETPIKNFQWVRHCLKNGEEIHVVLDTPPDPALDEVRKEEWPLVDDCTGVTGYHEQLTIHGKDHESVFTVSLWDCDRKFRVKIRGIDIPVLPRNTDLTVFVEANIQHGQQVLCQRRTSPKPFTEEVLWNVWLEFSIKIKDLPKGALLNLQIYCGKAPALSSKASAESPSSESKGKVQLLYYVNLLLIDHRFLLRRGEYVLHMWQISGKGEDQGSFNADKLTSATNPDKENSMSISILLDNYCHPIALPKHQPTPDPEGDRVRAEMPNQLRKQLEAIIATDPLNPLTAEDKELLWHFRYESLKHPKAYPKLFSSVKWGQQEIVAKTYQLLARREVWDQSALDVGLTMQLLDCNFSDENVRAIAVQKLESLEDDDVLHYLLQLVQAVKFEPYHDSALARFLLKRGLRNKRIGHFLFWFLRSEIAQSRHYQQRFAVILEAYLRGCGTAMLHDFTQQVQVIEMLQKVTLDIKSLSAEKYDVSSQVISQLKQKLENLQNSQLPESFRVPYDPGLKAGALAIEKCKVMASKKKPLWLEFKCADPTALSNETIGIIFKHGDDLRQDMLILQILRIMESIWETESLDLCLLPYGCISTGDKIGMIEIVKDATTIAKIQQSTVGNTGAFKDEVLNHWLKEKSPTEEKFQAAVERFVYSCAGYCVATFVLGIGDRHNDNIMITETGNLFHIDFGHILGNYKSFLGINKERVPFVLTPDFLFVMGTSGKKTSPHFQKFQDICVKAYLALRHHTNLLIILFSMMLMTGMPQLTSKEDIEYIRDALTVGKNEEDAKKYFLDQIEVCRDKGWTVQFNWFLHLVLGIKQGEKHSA
Protocol: as §1, §2, §3, §4, §5

[9] = biological target: TrkA (Homo sapiens, UniProt P04629); assay: Kinase activity assay; format: biochemical; conditions: listed = inhibited more than 60%
TrkA, sequence (P04629 33-796, species assumed): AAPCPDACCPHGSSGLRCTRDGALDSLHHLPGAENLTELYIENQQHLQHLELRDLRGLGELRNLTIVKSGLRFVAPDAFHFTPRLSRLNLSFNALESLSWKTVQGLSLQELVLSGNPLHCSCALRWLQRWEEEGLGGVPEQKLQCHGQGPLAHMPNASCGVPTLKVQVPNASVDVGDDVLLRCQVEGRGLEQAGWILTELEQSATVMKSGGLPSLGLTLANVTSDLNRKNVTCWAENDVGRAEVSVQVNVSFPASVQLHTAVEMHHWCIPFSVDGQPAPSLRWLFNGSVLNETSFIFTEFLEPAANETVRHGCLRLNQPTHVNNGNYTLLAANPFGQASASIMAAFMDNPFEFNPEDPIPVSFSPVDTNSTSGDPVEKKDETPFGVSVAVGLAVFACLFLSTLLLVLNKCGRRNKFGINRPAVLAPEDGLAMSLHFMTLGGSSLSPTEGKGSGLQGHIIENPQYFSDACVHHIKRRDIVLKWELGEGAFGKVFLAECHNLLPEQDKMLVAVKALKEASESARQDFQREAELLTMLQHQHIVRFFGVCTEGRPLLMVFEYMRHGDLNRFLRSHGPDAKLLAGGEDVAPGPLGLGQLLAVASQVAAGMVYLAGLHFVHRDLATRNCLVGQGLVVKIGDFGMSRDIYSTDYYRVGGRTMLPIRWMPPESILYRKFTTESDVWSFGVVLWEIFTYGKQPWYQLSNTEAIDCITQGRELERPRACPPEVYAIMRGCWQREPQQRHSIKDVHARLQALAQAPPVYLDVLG
Protocol: as §1, §2, §3, §4, §5

[10] = tested on: Staphylococcus aureus; assay: MIC screening, broth microdilution (CLSI)
Protocol: as §6, §9, §10, §11

[11] = tested on: Klebsiella pneumoniae; assay: MIC screening, broth microdilution (CLSI)
Protocol: as §6, §9, §10, §11

[12] = tested on: Escherichia coli; assay: MIC screening, broth microdilution (CLSI)
Protocol: as §6, §9, §10, §11

[13] = tested on: MRSA; assay: MIC screening, broth microdilution (CLSI)
Protocol: The MICs were determined by the broth microdilution method according to the Clinical and Laboratory Standards Institute (CLSI) guidelines. The MIC screening was performed on 96-well plates containing the compounds in serial 2-fold dilutions from 64 to 0.06 μg/ml. The bacterial inoculations were prepared in cation-adjusted Mueller Hinton medium broth from cultures grown on appropriate agar plates which are prepared freshly every week. The growth controls and sterile controls were included in each assay plates. The assay plates were incubated in an ambient-air incubator at 35±2° C. for 16-20 hr (24 hr for MRSA), and bacterial growth was observed and recorded.
as §7, §8, §9, §10, §11

[14] = tested on: Pseudomonas aeruginosa; assay: MIC screening, broth microdilution (CLSI)
Protocol: as §6, §9, §10, §11

[15] = tested on: Streptococci; assay: MIC screening, broth microdilution (CLSI)
Protocol: as §6, §7
Streptococci: TSA II, 5% CO2
as §8, §9, §10, §11

[16] = tested on: Enterococci; assay: MIC screening, broth microdilution (CLSI)
Protocol: as §6, §7
Enterococci: TSA II, ambient air
as §8, §9, §10
B. Transfer colonies from fresh culture plates into 5 ml of saline with sterile loops and mix well. Measure and adjust turbidity to 0.5 McFarland barium sulphate standard using a turbidity meter. Alternatively, transfer 1-2 colonies into 500 μl of saline and adjust OD625 to ˜0.1 using a plate reader. C. Dilute bacterial inoculum 1:280 for Gram-positive and fastidious strains and 1:400 for Gram-negative strains into corresponding medium broth (CAMHB, CAMHB+3% lysed horse blood, HTM) (e.g. 35.6 μl of inoculum into 10 ml of CAMHB or 25 μl of inoculum into 10 ml of CAMHB). H. influenzae: HTM Streptococci: CAMHB+3% lysed horse blood Other strains in the panel: CAMHB 2.4. Prepare Assay Plates A. Add 100 μl of the bacterial inoculum to each well of the compound plates except wells B12, D12, F12 and H12. B. Add 100 μl of medium broth to wells B12, D12, F12 and H12 of the compound plates. C. Stack four plates together and cover with a sterile plate lid. Incubate in an ambient-air incubator at 35±2° C. for 16-20 hours (24 hours for MRSA). […] Perform Colony Counts A. Dilute the bacterial inoculum (0.5 McFarland) to a serial of 10-1 to 10-7 in saline solution (e.g. 100 μl bacterial inoculum+900 μl of saline). B. Spread 100 μl of each dilution (10-4, 10-5, 10-6, and 10-7) onto CAMHA plates in triplication, let the liquid soak into the agar for 10 minutes, invert the agar plates and incubate for 24 hr at 35±2° C. […] Record MICs and Calculate CFUs A. Open the compound plate layout in the compound management system, and check the assay plate barcode. B. Place the assay plate on the top of MIC reader, and adjust the magnification mirror to read each wells, record growth status as raw data. (Optional) Record photo image of each assay plates using high-speed high-resolution scanner. C. Determine MIC break points according to CLSI guideline. D. Count colonies and calculate CFU of bacterial inoculum.

[17] = biological target: KDR (Homo sapiens, UniProt P35968); assay: Kinase activity assay; format: biochemical; conditions: listed = inhibited more than 60%
Protocol: as §1, §2, §3, §4, §5

[18] = biological target: FLT1 (Homo sapiens, UniProt P17948); assay: Kinase activity assay; format: biochemical; conditions: listed = inhibited more than 60%
Protocol: as §1, §2, §3, §4, §5

[19] = biological target: FLT3 (Homo sapiens, UniProt P36888); assay: Kinase activity assay; format: biochemical; conditions: listed = inhibited more than 60%
FLT3, sequence (P36888 27-993, species assumed): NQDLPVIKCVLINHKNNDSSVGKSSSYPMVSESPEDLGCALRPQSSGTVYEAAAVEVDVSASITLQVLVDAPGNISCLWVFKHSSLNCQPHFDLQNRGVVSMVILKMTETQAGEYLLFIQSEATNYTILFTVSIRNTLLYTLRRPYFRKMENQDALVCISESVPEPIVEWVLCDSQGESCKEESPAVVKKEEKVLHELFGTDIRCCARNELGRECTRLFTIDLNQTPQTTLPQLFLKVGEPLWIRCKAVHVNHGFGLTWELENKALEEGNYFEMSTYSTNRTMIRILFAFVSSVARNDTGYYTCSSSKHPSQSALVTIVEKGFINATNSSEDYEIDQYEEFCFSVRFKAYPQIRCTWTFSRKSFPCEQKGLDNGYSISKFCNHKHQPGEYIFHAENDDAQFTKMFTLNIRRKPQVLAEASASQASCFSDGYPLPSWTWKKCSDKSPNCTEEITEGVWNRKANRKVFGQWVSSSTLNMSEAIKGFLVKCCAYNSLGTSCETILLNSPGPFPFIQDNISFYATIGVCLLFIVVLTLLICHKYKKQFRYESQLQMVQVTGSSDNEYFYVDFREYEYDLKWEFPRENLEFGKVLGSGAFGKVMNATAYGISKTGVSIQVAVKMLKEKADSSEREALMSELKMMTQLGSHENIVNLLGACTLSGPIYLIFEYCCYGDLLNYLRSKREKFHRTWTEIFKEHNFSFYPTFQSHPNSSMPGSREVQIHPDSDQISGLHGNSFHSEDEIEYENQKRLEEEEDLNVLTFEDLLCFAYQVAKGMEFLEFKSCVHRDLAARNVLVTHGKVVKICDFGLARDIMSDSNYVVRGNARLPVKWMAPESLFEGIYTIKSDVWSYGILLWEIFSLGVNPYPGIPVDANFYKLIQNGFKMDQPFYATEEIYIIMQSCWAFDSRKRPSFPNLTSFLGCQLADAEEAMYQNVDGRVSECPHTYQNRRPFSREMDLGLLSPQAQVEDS
Protocol: as §1, §2, §3, §4, §5

[20] = biological target: CDK2/CyclinA2 (Homo sapiens, UniProt P24941); assay: Kinase activity assay; format: biochemical; conditions: listed = inhibited more than 60%
Protocol: as §1, §2, §3, §4, §5

[21] = biological target: CDK1/CyclinB (Homo sapiens, UniProt P06493); assay: Kinase activity assay; format: biochemical; conditions: listed = inhibited more than 60%
Protocol: as §1, §2, §3, §4, §5

[22] = biological target: PI3Kα (Homo sapiens, UniProt P42336); assay: Kinase activity assay; format: biochemical; conditions: listed = inhibited more than 60%
Protocol: as §1, §2, §3, §4, §5

[23] = biological target: CDK4/CyclinD3 (Homo sapiens, UniProt P11802); assay: Kinase activity assay; format: biochemical; conditions: listed = inhibited more than 60%
Protocol: as §1, §2, §3, §4, §5

[24] = ATCC29213, Staphylococcus aureus (ATCC 29213), Exp 1
[25] = ATCC29213, Staphylococcus aureus (ATCC 29213), Exp 2
[26] = Staphylococcus aureus (Levofloxacin-resistant), Exp 1
[27] = Staphylococcus aureus (Levofloxacin-resistant), Exp 2
[28] = Staphylococcus aureus (ATCC 43300), Exp 2
[29] = Staphylococcus aureus (MRSA, Erythromycin & clindamycin-resistant), Exp 2
[30] = Staphylococcus aureus, ATCC43300 / MRSA
[31] = Streptococcus pneumoniae, ATCC49619, Streptococcus pneumoniae (ATCC 49619), Exp 1
[32] = Streptococcus pneumoniae, ATCC49619, Streptococcus pneumoniae (ATCC 49619), Exp 2
[33] = Streptococcus pneumoniae, Streptococcus pneumoniae (Erythromycin-resistant), Exp 1
[34] = Streptococcus pneumoniae, Streptococcus pneumoniae (Erythromycin-resistant), Exp 2
[35] = Streptococcus pyogenes, ATCC700942, Streptococcus pyogenes (ATCC 700942), Exp 1
[36] = Streptococcus pyogenes, ATCC700942, Streptococcus pyogenes (ATCC 700942), Exp 2
[37] = Enterococcus faecalis, ATCC29212, Enterococcus faecalis (ATCC 29212), Exp 1
[38] = Enterococcus faecalis, ATCC29212, Enterococcus faecalis (ATCC 29212), Exp 2
[39] = Enterococcus faecium, ATCC700221, Enterococcus faecium (ATCC 700221), Exp 1
[40] = Enterococcus faecium, ATCC700221, Enterococcus faecium (ATCC 700221), Exp 2

CC(C)=CCOc1cc(O)cc(/C=C/c2ccc(O)c(O)c2)c1CC=C(C)C [USYDS14, (E)-2-(3-methyl-2-buten-1-yl)-3-(3-methyl-2-butenyloxy)-3′,4′,5-trihydroxystilbene]
TGI ([1]; BT-549, Breast Cancer): 1.63e-05 M
GI50 ([1]; BT-549, Breast Cancer): 4.27 µM
CC50 ([1]; BT-549, Breast Cancer): 46.9 µM
inhibition of cancerous cell growth ([2]; result in words): structure dependent inhibition of cancerous cell growth

COc1cc(/C=C/c2cc(O)cc(OCC=C(C)C)c2)ccc1O [USYDS2, (E)-3-(3-methyl-2-butenyloxy)-4′,5-dihydroxy-3′-methoxystilbene]
MIC [3]: 32 µg/mL (≈ 98 µM)
MIC ([3]; Exp 2): 32 µg/mL (≈ 98 µM)
MIC [4]: > 64 µg/mL
MIC ([4]; Exp 2): >64 µg/mL
Log P relative to resveratrol [5]: almost twice that of the hydroxystilbene resveratrol
Kinases that inhibited more than 60% [6]: PI3Kδ
Kinases that inhibited more than 60% [7]: PI3Kβ
Kinases that inhibited more than 60% [8]: PI3Kγ
Kinases that inhibited more than 60% [9]: TrkA
MIC [10, 24]: 32 µg/mL (≈ 98 µM)
MIC [10, 25]: 16 µg/mL (≈ 49 µM)
MIC [10, 26]: 16 µg/mL (≈ 49 µM)
MIC [10, 27]: 16 µg/mL (≈ 49 µM)
MIC [11]: > 64 µg/mL
MIC ([11]; Exp 2): >64 µg/mL
MIC ([12]; Exp 1): 64 µg/mL (≈ 196 µM)
MIC ([12]; Exp 2): 32 µg/mL (≈ 98 µM)
MIC [13, 28]: 16 µg/mL (≈ 49 µM)
MIC [13, 29]: 16 µg/mL (≈ 49 µM)
MIC [13, 30]: 16 µg/mL (≈ 49 µM)
MIC ([13]; Staphylococcus aureus, MRSA): 16 µg/mL (≈ 49 µM)
MIC [14]: > 64 µg/mL
MIC ([14]; Exp 2): >64 µg/mL
MIC [15, 31]: 32 µg/mL (≈ 98 µM)
MIC [15, 32]: 32 µg/mL (≈ 98 µM)
MIC [15, 33]: 32 µg/mL (≈ 98 µM)
MIC [15, 34]: 64 µg/mL (≈ 196 µM)
MIC [15, 35]: 64 µg/mL (≈ 196 µM)
MIC [15, 36]: 64 µg/mL (≈ 196 µM)
MIC [16, 37]: 32 µg/mL (≈ 98 µM)
MIC [16, 38]: 32 µg/mL (≈ 98 µM)
MIC [16, 39]: 32 µg/mL (≈ 98 µM)
MIC [16, 40]: 32 µg/mL (≈ 98 µM)

COc1cc(/C=C/c2cc(O)cc(O)c2CC=C(C)C)ccc1O [USYDS10, (E)-2-(3-methyl-2-buten-1-yl)-3,4′,5-trihydroxy-3′-methoxystilbene]
Kinases that inhibited more than 60% [17]: KDR
Kinases that inhibited more than 60% [6]: PI3Kδ
Kinases that inhibited more than 60% [7]: PI3Kβ
Kinases that inhibited more than 60% [18]: FLT1
Kinases that inhibited more than 60% [19]: FLT3
Kinases that inhibited more than 60% [20]: CDK2/CyclinA2
Kinases that inhibited more than 60% [21]: CDK1/CyclinB
Kinases that inhibited more than 60% [8]: PI3Kγ
Kinases that inhibited more than 60% [9]: TrkA
Kinases that inhibited more than 60% [22]: PI3Kα
TGI ([1]; BT-549, unit not printed (M)): 1.90E−5
GI50 ([1]; BT-549, unit not printed (M)): 0.798 µM
CC50 ([1]; BT-549, unit not printed (M)): 49.3 µM
inhibition of cancerous cell growth ([2]; result in words): structure dependent inhibition of cancerous cell growth

COc1cc(/C=C/c2cc(O)cc(OC)c2CC=C(C)C)ccc1O [USYDS1, (E)-2-(3-methyl-2-buten-1-yl)-4′,5-dihydroxy-3,3′-dimethoxystilbene]
MIC [3]: 32 µg/mL (≈ 94 µM)
MIC ([3]; Exp 2): 32 µg/mL (≈ 94 µM)
MIC [4]: > 64 µg/mL
MIC ([4]; Exp 2): >64 µg/mL
Log P relative to resveratrol [5]: almost twice that of the hydroxystilbene resveratrol
Kinases that inhibited more than 60% [6]: PI3Kδ
Kinases that inhibited more than 60% [19]: FLT3
Kinases that inhibited more than 60% [20]: CDK2/CyclinA2
Kinases that inhibited more than 60% [8]: PI3Kγ
Kinases that inhibited more than 60% [9]: TrkA
Kinases that inhibited more than 60% [23]: CDK4/CyclinD3
Kinases that inhibited more than 60% [22]: PI3Kα
MIC [10, 24]: 16 µg/mL (≈ 47 µM)
MIC [10, 25]: 8 µg/mL (≈ 23.5 µM)
MIC [10, 26]: 8 µg/mL (≈ 23.5 µM)
MIC [10, 27]: 8 µg/mL (≈ 23.5 µM)
MIC [11]: > 64 µg/mL
MIC ([11]; Exp 2): >64 µg/mL
MIC ([12]; Exp 1): 16 µg/mL (≈ 47 µM)
MIC ([12]; Exp 2): 16 µg/mL (≈ 47 µM)
MIC [13, 28]: 8 µg/mL (≈ 23.5 µM)
MIC [13, 29]: 8 µg/mL (≈ 23.5 µM)
MIC [13, 30]: 8 µg/mL (≈ 23.5 µM)
MIC ([13]; Staphylococcus aureus, MRSA): 8 µg/mL (≈ 23.5 µM)
GI50 ([2]; Homo sapiens, range over almost all types of tumor cells): 0.02 to 5 µM
fold more potent than piceatannol ([2]; inhibition of proliferation of almost all types of tumor cells): approximately 250 fold
order of potency in the inhibition of cancerous cell growth ([2]; result in words): most potent activity
MIC [14]: > 64 µg/mL
MIC ([14]; Exp 2): >64 µg/mL
MIC [15, 31]: 32 µg/mL (≈ 94 µM)
MIC [15, 32]: 32 µg/mL (≈ 94 µM)
MIC [15, 33]: 32 µg/mL (≈ 94 µM)
MIC [15, 34]: 32 µg/mL (≈ 94 µM)
MIC [15, 35]: 64 µg/mL (≈ 188 µM)
MIC [15, 36]: 64 µg/mL (≈ 188 µM)
MIC [16, 37]: 16 µg/mL (≈ 47 µM)
MIC [16, 38]: 16 µg/mL (≈ 47 µM)
MIC [16, 39]: 8 µg/mL (≈ 23.5 µM)
MIC [16, 40]: 16 µg/mL (≈ 47 µM)
